The test system of this assay is HIV-1 (IIIB) in MT-4 cells. As to the kind of experiment: microbe, parasite or virus in culture. In kind it is cell-based. The conditions noted are these: Human immunodeficiency virus 1, IIIB. The method, then: Compounds were serially diluted (1:3) in DMSO on 384-well polypropylene plates and further diluted 200-fold into complete RPMI media (10% FBS, 1% P/S) using the Biotek Micro Flow and Agilent ECHO acoustic dispenser. Each plate contained up to 8 test compounds, with negative (No Drug Control) and 5 uM AZT positive controls. MT-4 cells were pre-infected with 10 uL of either RPMI (mock-infected) or a fresh 1:250 dilution of an HIV-1 (IIIB) concentrated virus stock. Infected and uninfected MT-4 cells were further diluted in complete RPMI media and added to each plate using a Micro Flow dispenser. After 5 days incubation in a humidified and temperature controlled incubator (37° C.), Cell Titer Glo (Promega) was added to the assay plates to quantify the amount of luciferase.

[1] abbreviates: MT4, MT-4 cells, HIV-1, read-out: MT4 EC50.

Read-outs that look alike come from different tables or passages of the source.

Take `CC(C)(C[C@]1(c2ccc(-c3cnn(C4CC4)n3)cc2)NC(=N)N([C@H](COC(=O)NCC(F)(F)F)c2ccc(Cl)c(-c3ncnn3C(F)F)c2)C1=O)C(F)(F)F` [Compound 156]: for the setting “MT4, read-out: MT4 EC50 (nM)”, the EC50 (as a rule, the concentration giving half of the maximal effect) was 11.1 nM.
On to `C[C@H](NC(=O)OC[C@H](c1ccc(Cl)c(-n2ncnc2C(F)F)c1)N1C(=N)N[C@](CC(C)(C)C)(c2ccc(-c3cnn(C4CC4)c3)cc2F)C1=O)C(F)(F)F` [Compound 315], for which the EC50 under setting [1] is 9.97 nM.
With `CC(C)(C)C[C@]1(c2ccc(-c3cnn(C4CC4)c3)cc2F)NC(=N)N([C@H](COC(=O)NC2(C(F)(F)F)CC2)c2ccc(Cl)c(-n3ncnc3C(F)F)c2)C1=O` [Compound 209], the EC50 under setting [1] was 14.7 nM.
On to `CC1(NC(=O)OC[C@H](c2ccc(Cl)c(-n3cccn3)c2)N2C(=N)N[C@](CC(C)(C)C(F)(F)F)(c3ccc(-c4cnn(C5CC5)c4)cc3)C2=O)CC1` [Compound 324], for which, under setting [1], the EC50 was 27.8 nM.
Same read-out and setting: the same measure for `CC(C)(C)C[C@]1(c2ccc(-c3nnn(C4CC4)n3)cc2)NC(=N)N([C@H](COC(=O)NC2(C(F)(F)F)CC2)c2ccc(Cl)c(-n3ncnc3C(F)F)c2)C1=O` [Compound 356]: 19.5 nM; for `[H]/N=C1\N[C@](CC(C)(C)C)(c2ccc(-c3cnn(C(F)F)c3)cc2)C(=O)N1[C@H](COC(=O)NC1CC1)c1ccc(Cl)c(-c2nccc(OC)n2)c1` [Compound 15, (S)-2-(4-chloro-3-(4-methoxypyrimidin-2-yl)phenyl)-2-((R)-4-(4-(1-(difluoromethyl)-1H-pyrazol-4-yl)phenyl)-2-imino-4-neopentyl-5-oxoimidazolidin-1-yl)ethyl cyclopropylcarbamate]: 230 nM.
The same measure, in the same setting: for `CC(C)(F)C[C@]1(c2ccc(-c3cnccn3)cc2)NC(=N)N([C@H](COC(=O)NC2(C(F)(F)F)CC2)c2ccc(Cl)c(-n3ncnc3C(F)F)c2)C1=O` [Compound 328] the value was 22.4 nM; for `CC(C)(C)C[C@]1(c2ccc(-c3ccc4c(c3)OC(F)(F)O4)cc2)NC(=N)N([C@H](COC(=O)NC2(C(F)(F)F)CC2)c2ccc(Cl)c(-n3ncnc3C(F)F)c2)C1=O` [Compound 283], 113 nM; for `CC(C)(C)C[C@]1(c2ccc(-c3cnn(C(F)F)c3)cc2)NC(=N)N([C@H](COC(=O)NC(C)(C)C)c2ccc(Cl)c(-n3cncn3)c2)C1=O` [Compound 241], 8.36 nM.
Consider `CC(C)(C)C[C@]1(c2ccc(-c3cnn(C4CC4)c3)c(F)c2)NC(=N)N([C@H](COC(=O)NC2(C(F)(F)F)CC2)c2ccc(Cl)c(-n3ncnc3C(F)F)c2)C1=O` [Compound 306], for which, under setting [1], the EC50 stood at 10.9 nM.
On the same count and under the same terms, for `CC1(NC(=O)OC[C@H](c2ccc(Cl)c(-n3cccn3)c2)N2C(=N)N[C@](CC(C)(C)C(F)(F)F)(c3ccc(Cl)cc3)C2=O)CC1` [Compound 263] the value was 748 nM; for `CC(C)(C)C[C@]1(c2ccc(-c3ncccn3)cc2F)NC(=N)N([C@H](COC(=O)NC(C)(C)C(F)(F)F)c2ccc(Cl)c(-n3ncnc3C(F)F)c2)C1=O` [Compound 198], 11.5 nM.
The same measure, in the same setting: the same measure for `Cc1ncn(-c2cc([C@@H](COC(=O)NC3(C)CC3)N3C(=N)N[C@](CC(C)(C)C)(c4ccc(-c5cnn(C(F)F)c5)cc4)C3=O)ccc2Cl)n1` [Compound 238]: 156 nM; for `CC(C)(C)C[C@]1(c2ccc(-c3ncn(C4CC4)n3)cc2F)NC(=N)N([C@H](COC(=O)NC2(C(F)(F)F)CC2)c2ccc(Cl)c(-c3ncnn3C(F)F)c2)C1=O` [Compound 142]: 10.1 nM; for `C[C@H](CC#N)C[C@]1(c2ccc(-c3cnn(C(F)F)c3)cc2)NC(=N)N([C@H](COC(=O)NC2(C(F)(F)F)CC2)c2ccc(Cl)c(-n3ncnc3C(F)F)c2)C1=O` (single isomer, unassigned) [Compound 347]: 32 nM.
As for `CC(C)(C)C[C@]1(c2ccc(-c3cnn(C(F)F)c3)cc2)NC(=N)N([C@H](COC(=O)NC2(C)CC2)c2ccc(Cl)c(-n3cncn3)c2)C1=O` [Compound 237], the EC50 under setting [1] came to 8.79 nM.
Same read-out and setting: for `CC(C)(C)C[C@]1(c2ccc(-c3ncccn3)cc2)NC(=N)N([C@H](COC(=O)NC2(C(F)(F)F)CC2)c2ccc(Cl)c(-c3ncnn3C(F)F)c2)C1=O` [Compound 117] the value was 6.81 nM; for `CC(C)(C)C[C@]1(c2ccc(-c3cnn(CC(F)F)n3)cc2F)NC(=N)N([C@H](COC(=O)NC2(C(F)(F)F)CC2)c2ccc(Cl)c(-c3ncnn3C(F)F)c2)C1=O` [Compound 151], 7.55 nM.
As for `CC(C)(C)C[C@]1(c2ccc(-c3cnn(C4CC4)n3)cc2)NC(=N)N([C@H](CNC(=O)C2CC2)c2ccc(Cl)c(-n3ncnc3C(F)F)c2)C1=O` [Compound 381], the EC50 under setting [1] was determined as 24.8 nM.
Same read-out and setting: for `CC(C)(C)C[C@]1(c2ccc(-c3cnn(C(F)F)c3)cc2)NC(=N)N([C@H](COC(=O)N[C@@H]2C[C@H]2C(F)F)c2ccc(Cl)c(-n3ncnc3C(F)F)c2)C1=O` [Compound 333] the value was 10.5 nM.
Consider `CC(C)(C)C[C@]1(c2ccc(-c3cnn(C(F)F)c3)cc2)NC(=N)N([C@H](COC(=O)NC2(C)CC2)c2ccc(Cl)c(-n3cccn3)c2)C1=O` [Compound 258], for which, under setting [1], the EC50 turned out to be 28.5 nM.
On the same count and under the same terms, the same measure for `CC(C)(C)C[C@]1(c2ccc(-c3cnn(C(F)F)c3)cc2)NC(=N)N([C@H](COC(=O)NC2(C(F)(F)F)CC2)c2ccc(F)c(-c3ncnn3C(F)F)c2)C1=O` [Compound 123]: 28.1 nM.
The same measure, in the same setting: the same measure for `CC(C)(C)C[C@]1(c2ccc(-c3cccc(=O)[nH]3)cc2)NC(=N)N([C@H](COC(=O)NC2(C(F)(F)F)CC2)c2ccc(Cl)c(-n3cncn3)c2)C1=O` [Compound 249]: 325 nM.
As for `CC(C)(C)C[C@]1(c2ccc(-c3cnn(C(F)F)c3)cc2)NC(=N)N([C@H](COC(=O)NC2(C(F)(F)F)CC2)c2ccc(Cl)c(-n3cccn3)c2)C1=O` [Compound 255], the EC50 under setting [1] worked out at 22.7 nM.
The same measure, in the same setting: for `CC(C)(C)C[C@]1(c2ccc(-c3ncccn3)cc2)NC(=N)N([C@H](COC(=O)NC(C)(C)C(F)(F)F)c2ccc(Cl)c(-n3ncnc3C(F)F)c2)C1=O` [Compound 189] the value was 9.12 nM; for `Cn1ncnc1-c1cc([C@@H](COC(=O)NC2CC2)N2C(=N)N[C@](CC(C)(C)C)(c3ccc(-c4cnn(C(F)F)c4)cc3)C2=O)ccc1Cl` [Compound 18], 9.56 nM.
Same read-out and setting: the same measure for `CC(C)(C)C[C@]1(c2ccc(-c3ncns3)cc2F)NC(=N)N([C@H](COC(=O)NC2(C(F)(F)F)CC2)c2ccc(Cl)c(-n3ncnc3C(F)F)c2)C1=O` [Compound 284]: 11.4 nM.
Regarding `CC(C)(C)C[C@]1(c2ccc(-c3cnn(C(F)F)c3)cc2)NC(=N)N([C@H](COC(=O)NC2CC2)c2ccc(Cl)c(-c3nc(Cl)c(Cl)[nH]3)c2)C1=O` [Compound 23], the EC50 under setting [1] is 70.4 nM.
On the same count and under the same terms, for `CC(C)(C)C[C@]1(c2ccc(-c3ccn4ccnc4c3)cc2)NC(=N)N([C@H](COC(=O)NC2(C(F)(F)F)CC2)c2ccc(Cl)c(-c3ncnn3C(F)F)c2)C1=O` [Compound 120] the value was 27.8 nM.
`CC(C)(C)C[C@]1(c2ccc(-c3cnn(C(F)F)c3)cc2)NC(=N)N([C@H](COC(=O)N2CC(F)(F)C2)c2ccc(Cl)c(-n3ncnc3C(F)F)c2)C1=O` [Compound 184]: the EC50 under setting [1] is 9.93 nM.
For `CC(C)(C)C[C@]1(c2ccc(-c3cnn(C(F)F)c3)cc2)NC(=N)N([C@H](CO)c2ccc(Cl)c(-n3ncnc3C(F)F)c2)C1=O` [Compound 186], under setting [1], the EC50 came to 80.2 nM.
The same measure, in the same setting: the same measure for `CC(C)(C)C[C@]1(c2ccc(-c3cnn(C(F)F)c3)cc2)NC(=N)N([C@H](COC(=O)NC2(C)CC2)c2ccc(Cl)c(-c3ncnn3C3CC3)c2)C1=O` [Compound 43]: 8.18 nM; for `CC(C)(C)C[C@]1(c2ccc(-c3cnn(C(F)F)c3)cc2)NC(=N)N([C@H](COC(=O)N2CC3(COC3)C2)c2ccc(Cl)c(-c3ncn[nH]3)c2)C1=O` [Compound 82]: 180 nM; for `Cc1ncoc1-c1cccc([C@@H](COC(=O)NC(C)C)N2C(=N)N[C@](CC(C)C)(c3ccccc3)C2=O)c1` [Compound 7]: 57100 nM.
For `CC(C)(C)C[C@]1(c2ccc(-c3ccccn3)cc2)NC(=N)N([C@H](COC(=O)NC2(C(F)(F)F)CC2)c2ccc(Cl)c(-n3cncn3)c2)C1=O` [Compound 320], the EC50 under setting [1] came out at 22.5 nM.
Same read-out and setting: the same measure for `CC(C)(C)C[C@]1(c2ccc(-c3ncon3)cc2)NC(=N)N([C@H](COC(=O)NC2(C(F)(F)F)CC2)c2ccc(Cl)c(-n3cncn3)c2)C1=O` [Compound 378]: 35.6 nM; for `CC(C)(C)C[C@]1(c2ccc(-c3cnn(C4CC4)c3)cc2)NC(=N)N([C@H](COC(=O)NCC(F)(F)F)c2ccc(Cl)c(-n3ncnc3C(F)F)c2)C1=O` [Compound 221]: 15.4 nM; for `N=C1N[C@](C#CC2CC2)(c2ccc(-c3cnn(C(F)F)c3)cc2)C(=O)N1[C@H](COC(=O)NC1(C(F)(F)F)CC1)c1ccc(Cl)c(-n2cccn2)c1` [Compound 267]: 243 nM.
With `CC(C)(CC#N)C[C@]1(c2ccc(-c3cnn(C4CC4)c3)cc2)NC(=N)N([C@H](COC(=O)NC2(C(F)(F)F)CC2)c2ccc(Cl)c(-n3ncnc3C(F)F)c2)C1=O` [Compound 362], the EC50 under setting [1] was 36.4 nM.
With `CC(C)(C)C[C@]1(c2ccc(-c3cnn(C(F)F)c3)cc2)NC(=N)N([C@H](COC(=O)N2CC(C(F)(F)F)C2)c2ccc(Cl)c(-c3ncn[nH]3)c2)C1=O` [Compound 83], the EC50 under setting [1] worked out at 33.4 nM.
Still for that read-out and setting: the same measure for `C[C@H](NC(=O)OC[C@H](c1ccc(Cl)c(-n2ncnc2C(F)F)c1)N1C(=N)N[C@](CC(C)(C)C)(c2ccc(-c3cnn(C4CC4)n3)cc2)C1=O)C(F)(F)F` [Compound 230]: 7.62 nM; for `CC(C)(C)C[C@]1(c2ccc(-c3cnn(C(F)F)c3)cc2)NC(=N)N([C@H](COC(=O)N2CC(C(F)F)C2)c2ccc(Cl)c(-c3ncn[nH]3)c2)C1=O` [Compound 99]: 65.7 nM.

The values are drawn from patent US10774053B2, “HIV protease inhibitors” (Gilead Sciences, Inc., priority 2017, dated 2020).
